From patent US8791163B2 (McGill University, priority 2006, dated 2014)
Where “and” joins values, the source holds several entries; their conditions need not be identical. Equal entries are not always repeated.

Columns and labels:
[1] = target: T1, cloned human MT2 receptors (Homo sapiens, UniProt P49286); assay: 2-[125I]iodomelatonin competition binding, human MT2 in NIH3T3 cells; settings: human recombinant receptors expressed in NIH3T3 cells
T1 construct: expressed in transfected cells
T1 sequence (P49286 1-362): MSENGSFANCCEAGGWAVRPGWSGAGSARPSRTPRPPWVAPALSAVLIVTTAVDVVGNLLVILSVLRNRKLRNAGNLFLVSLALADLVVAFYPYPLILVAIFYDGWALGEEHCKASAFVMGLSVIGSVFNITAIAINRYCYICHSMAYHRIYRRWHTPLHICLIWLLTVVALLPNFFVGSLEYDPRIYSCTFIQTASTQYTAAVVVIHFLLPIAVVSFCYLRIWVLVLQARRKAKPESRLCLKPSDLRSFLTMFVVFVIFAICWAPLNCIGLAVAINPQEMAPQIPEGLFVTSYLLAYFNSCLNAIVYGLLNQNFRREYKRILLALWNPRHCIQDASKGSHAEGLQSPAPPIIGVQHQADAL

[2] = target: T1, cloned human MT2 receptors; assay: [35S]GTPγS binding assay, NIH3T3 cells expressing human MT2; format: biochemical; settings: maximal net effect relative to MLT
[3] = tested on: dorsal raphe 5-HT neurons; assay: In vivo electrophysiological recording of 5-HT firing activity; design: species or system rat
From the text: Serotonin (5-HT) neurons are implicated in the regulation of mood (for a review see Gobbi G, (2005) Inter. Rev. Neurobiology 65: 249-271). The increase in serotonergic neurotransmission is linked to the action of antidepressant drugs. For example fluoxetine (Prozac) increases the 5-HT availability by blocking its […]; mirtazapine (Remeron) increases 5-HT firing activity via an indirect alpha-2 receptor blockade. Consequently, in order to test if compound 5b increases the 5-HT firing activity, in vivo 5-HT neuron activity was recorded after single (40 or 80 mg/kg, subcutaneous) and repeated injections with compound 5b (40 mg/kg, i.p. once a day, for 4 days). For animals treated with a single injection (acute) the recording was done immediately following the injection. For animals treated with repeated injection (sub-chronic) the recording was done 24 hours after the last injection (FIG. 6).
Rats (Sprague-Dawley) were anesthetized with chloral hydrate (400 mg/kg i.p.) and placed in a stereotaxic frame (David Kopf Instruments) with the skull positioned horizontally. To maintain a full anesthetic state in which there is no reaction to a tail or paw pinch, chloral hydrate supplements of 100 mg/kg were given as needed. A burr hole was drilled in the midline, 0.9 to 1.2 mm anterior to interaural zero (Paxinos, G. and Watson, C. (1982); The rat brain in Stereotaxic Coordinates; Academy, Sydney). Dorsal raphe was encountered just below the Sylvius aqueduct, 5.0 to 6.5 mm ventral to dura mater. The dorsal raphe 5-HT neurons, in physiological conditions, were identified according to the following criteria: a slow (0.5-2.5 Hz) and regular firing rate; and a long-duration (0.8-1.2 ms) positive action potential (Baraban and Aghajanian (1980) Neuropharmacology 19, 355-363). Neuronal activity was recorded and processed by a computer connected to CED1401 interface-Spike 2 software (Cambridge Electronic Design, Cambridge, UK).

higher affinity for the MT2 than for the MT1 subtype [1]: ~100 fold
MT2 IAr ± SEM (relative intrinsic activity) [2]: 0.6 and 0.61 ± 0.04
SMILES: COc1cccc(N(CCNC(C)=O)c2ccccc2)c1 [5b, N-{2-[(3-Methoxyphenyl)-phenylamino]ethyl}acetamide]
increase of spontaneous activity of 5-HT neurons ([3]; acute single injection 40 mg/kg subcutaneous): 40%
5-HT neuron firing rate ([3]; acute single injection 40 mg/kg subcutaneous (control 0.66 Hz)): 0.93 Hz
increase of spontaneous activity of 5-HT neurons ([3]; acute single injection 80 mg/kg subcutaneous): 106%
5-HT neuron firing rate ([3]; acute single injection 80 mg/kg subcutaneous (control 0.66 Hz)): 1.36 Hz
increase of spontaneous activity of 5-HT neurons ([3]; sub-chronic 40 mg/kg i.p. once a day for 4 days, recorded 24 h after last injection): 133%
5-HT neuron mean firing rate ([3]; sub-chronic 40 mg/kg once a day for 4 days, recorded 24 h after last injection (control 1.2 Hz)): 2.8 Hz and 2.80 Hz
